Measurements as given in patent US20240076314A1 (priority 2020, published 2024).
Where a SMILES comes first, the peptide text is derived from it. Bridges are numbered along the chain shown (N, C = ends).

Molecular target: human nAChR (hnAChR α1/β1/γ/ε-HEK 293 Recombinant Cell Line) (Homo sapiens, UniProt P02708+Q04844+Q07001)
Assay: cell-based

Sequence of human nAChR (hnAChR α1/β1/γ/ε-HEK 293 Recombinant Cell Line) (P02708 whole entry, looked up): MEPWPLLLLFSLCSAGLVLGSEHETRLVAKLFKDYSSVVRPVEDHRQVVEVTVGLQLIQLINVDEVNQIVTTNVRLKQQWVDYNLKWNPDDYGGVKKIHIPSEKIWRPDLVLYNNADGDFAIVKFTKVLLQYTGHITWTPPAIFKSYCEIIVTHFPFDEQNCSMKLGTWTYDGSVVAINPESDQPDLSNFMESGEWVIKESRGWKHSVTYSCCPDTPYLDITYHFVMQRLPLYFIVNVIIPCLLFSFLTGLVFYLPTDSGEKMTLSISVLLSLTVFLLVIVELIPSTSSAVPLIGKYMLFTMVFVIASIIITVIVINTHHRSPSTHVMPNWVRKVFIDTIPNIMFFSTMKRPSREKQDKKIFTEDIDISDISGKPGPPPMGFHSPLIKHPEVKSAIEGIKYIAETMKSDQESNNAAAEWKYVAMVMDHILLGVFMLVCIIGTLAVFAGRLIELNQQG
Sequence of human nAChR (hnAChR α1/β1/γ/ε-HEK 293 Recombinant Cell Line) (Q04844 whole entry, looked up): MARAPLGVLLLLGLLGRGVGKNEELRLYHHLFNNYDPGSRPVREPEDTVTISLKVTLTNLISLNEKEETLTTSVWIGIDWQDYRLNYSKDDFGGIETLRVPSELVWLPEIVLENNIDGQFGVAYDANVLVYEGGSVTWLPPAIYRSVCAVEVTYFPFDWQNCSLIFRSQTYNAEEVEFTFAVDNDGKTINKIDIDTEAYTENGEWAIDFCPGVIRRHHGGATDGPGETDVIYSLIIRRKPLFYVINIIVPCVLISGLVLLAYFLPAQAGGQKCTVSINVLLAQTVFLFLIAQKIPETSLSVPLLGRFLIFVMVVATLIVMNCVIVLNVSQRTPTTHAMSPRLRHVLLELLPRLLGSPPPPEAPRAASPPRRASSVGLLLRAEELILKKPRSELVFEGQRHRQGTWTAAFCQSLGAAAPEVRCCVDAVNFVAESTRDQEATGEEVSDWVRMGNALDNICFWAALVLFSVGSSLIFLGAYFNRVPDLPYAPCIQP
Sequence of human nAChR (hnAChR α1/β1/γ/ε-HEK 293 Recombinant Cell Line) (Q07001 whole entry, looked up): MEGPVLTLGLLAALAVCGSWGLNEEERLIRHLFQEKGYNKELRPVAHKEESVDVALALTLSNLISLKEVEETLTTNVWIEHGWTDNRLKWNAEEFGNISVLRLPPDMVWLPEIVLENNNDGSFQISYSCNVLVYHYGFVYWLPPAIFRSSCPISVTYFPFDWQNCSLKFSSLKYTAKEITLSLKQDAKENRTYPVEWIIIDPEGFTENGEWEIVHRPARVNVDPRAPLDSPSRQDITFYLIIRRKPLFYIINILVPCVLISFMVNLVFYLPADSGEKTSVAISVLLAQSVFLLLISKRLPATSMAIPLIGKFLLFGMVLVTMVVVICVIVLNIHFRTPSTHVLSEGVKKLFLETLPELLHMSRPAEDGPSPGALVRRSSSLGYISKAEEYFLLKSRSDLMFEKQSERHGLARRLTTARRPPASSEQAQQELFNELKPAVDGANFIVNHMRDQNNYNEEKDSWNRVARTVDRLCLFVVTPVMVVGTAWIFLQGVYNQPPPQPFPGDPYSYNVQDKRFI

## CC(=O)N[C@H]1CSSC[C@@H]2NC(=O)[C@H](C)NC(=O)[C@@H]3CCCN3C(=O)[C@H](CC(N)=O)NC(=O)[C@H](CSSC[C@@H](C(N)=O)NC(=O)[C@H](CO)NC(=O)[C@H](Cc3ccc(O)cc3)NC(=O)[C@H](CC(N)=O)NC(=O)[C@H](CCCCN)NC(=O)CNC2=O)NC1=O [SEQ ID NO: 60, Ac-Cys-Cys-Asn-Pro-Ala-Cys-Gly-Lys-Asn-Tyr-Ser-Cys-NH2] (Ac-CCNPACGKNYSC-NH2; disulfide 1-6, 2-12)
  IC50: > 100 nM

## CC(=O)N[C@H]1CSSC[C@@H]2NC(=O)[C@H](C)NC(=O)[C@@H]3CCCN3C(=O)[C@H](CC(N)=O)NC(=O)[C@H](CSSC[C@@H](C(N)=O)NC(=O)[C@H](CCCCN)NC(=O)[C@H](Cc3ccc(O)cc3)NC(=O)[C@H](CC(N)=O)NC(=O)[C@H](CCCCN)NC(=O)CNC2=O)NC1=O [SEQ ID NO: 62, Ac-Cys-Cys-Asn-Pro-Ala-Cys-Gly-Lys-Asn-Tyr-Lys-Cys-NH2] (Ac-CCNPACGKNYKC-NH2; disulfide 1-6, 2-12)
  IC50: > 100 nM
